The results in this text go back to patent US11008572B2, “Methods and compositions for modulating splicing” (SKYHAWK THERAPEUTICS, INC., priority 2017, dated 2021).

One test relates to FOXM1^A2 mRNA and FOXM1^BC mRNA. The test can be described thus: Splicing assay (FOXM1), qPCR of isoform mRNAs. In kind it is cell-based. Particulars: FoxM1 A mRNA increase (exon excluded); read-out: Splice EC50 (nM) FoxM1 A mRNA increase (exon excluded). The procedure: Various cells lines were treated with the SMSMs described herein. RNA was then isolated, cDNA synthesized, qPCR performed and the levels of various mRNA targets of the SMSMs were determined. In some instances, RNA was isolated, cDNA synthesized, qPCR performed and the levels of mRNA isoforms in the various cell samples were determined.
On the day of the experiment, a 96-well plate was seeded with the cell lines of interest. The cells were diluted with full growth media to a concentration of 2.0×10^5 cells/mL and 100 μL of cells were added to each well (20,000 cells per well). The cells were treated with a compound immediately after plating.
The compounds were then added to the cell plate using the HP compound dispenser. In the initial experiment, a top concentration of 10 μM and an 8 point 4-fold dilution scheme was used. The stock compounds were made at a concentration of 5 mM, and the DMSO concentration was set to 0.2%. DMSO was used to normalize all the compound-containing wells and the untreated cells.
The treated cells were incubated at 37° C. in a 5% CO2 incubator for the desired amount of time. Plates were placed in a plastic bag with a wet paper towel to prevent evaporation.
RNA was isolated using the Cells to CT kit (ThermoFisher, AM1728). The cells were washed once with 100 μL cold PBS. 50 μL of lysis buffer was added to each well/tube (49.5 μL lysis buffer+0.5 μL DNase I per well/tube). The lysis reaction was mixed and incubated at room temperature for 5 minutes. 5 μL of stop solution was added directly into each cell lysis reaction and mixed by pipetting up and down 5 times. The plates/tubes were incubated at room temperature for 2 minutes then placed on ice if the cDNA synthesis was to be performed immediately. Otherwise, the plates/tubes were stored at −80° C. cDNA synthesis reactions were then performed. Reverse Transcription (RT) Master mix was prepared according to the table below.
40 μL RT master mix was added to PCR tubes or plate wells. 10 μL of RNA was added to each tube/well. The RT thermal cycler program was then run and tubes or plate wells were incubated at 37° C. for 1 hour, then at 95° C. for 5 minutes to deactivate the enzyme.
The qPCR was performed using a QuantStudio 6 instrument (ThermoFisher) and the following cycling conditions and according to the tables below. All samples and standards were analyzed in triplicate. Cycle 1: 2 minutes at 50° C. Cycle 2: 10 minutes at 95° C. Cycle 3 (repeat 40 times): 15 seconds at 95° C., 1 minute at 60° C.
The determined isoform 2and isoform 1quantities were then be used to determine the isoform 2: […] at the various compound concentrations. The PPIA quantities were used in the normalization to account of cell proliferation effects of the compounds.
The dilution necessary to make the top standard is calculated. A top concentration 200,000,000 copies/μL of the stock plasmid was prepared in TE buffer. A series of 10-fold dilutions, also in TE, were then made. A total of 5 μL of each standard was used in a qPCR well to generate samples containing 109 copies, […], 10^7copies, 10^6 copies, 10^5 copies, 10^4 copies, 10^3 copies, 10^2 copies, 10^1copies, and 0 copies.
An assay to measure the FOXM1^A2 mRNA and FOXM1^BC mRNA, or MADD^WT (isoform 4) mRNA and MADD^Ex16 (isoform 3) mRNA, or MAPTau^4R mRNA and MAPTau^3R mRNA simultaneously in cell wells was performed. The RNA values were measured relative to DMSO control and also included a housekeeping gene, PPIA to ensure data was consistent. The mRNA values were measured after 24 hours of incubation with the SMSM compounds.
In general terms: In qPCR the cycle at which signal appears reflects the starting amount.
As for “2-(6-(((1R,3s,5S)-1,5-dimethyl-8-azabicyclo[3.2.1]octan-3-yl)(methyl)amino)pyridazin-3-yl)-5-(4-methyl-1H-imidazol-1-yl)phenol [compound 177]”, the EC50 is below 10 nM.

The test is the same for the next values; noted with them: FoxM1 BC mRNA decrease (exon included); read-out: Splice IC50 (nM) FoxM1 BC mRNA decrease (exon included).
On to “2-(6-(((1R,3s,5S)-1,5-dimethyl-8-azabicyclo[3.2.1]octan-3-yl)(methyl)amino)pyridazin-3-yl)-5-(4-methyl-1H-imidazol-1-yl)phenol [compound 177]”, for which the IC50 is below 10 nM.

A further test has as its system A-673 cells. The test can be described thus: Cell viability, crystal violet staining. In kind it is cell-based. Particulars: Homo sapiens, A673, cell viability, read-out: A-673 IC50 (nM) Cell viability. The procedure: To measure cell viability, cells were plated in 96-well plastic tissue culture plates at a density of 5×10^3 cells/well. Twenty-four hours after plating, cells were treated with various SMSMs. After 72 hours, the cell culture media were removed and plates were stained with […] of a solution containing 0.5% crystal violet and 25% methanol, rinsed with deionized water, dried overnight, and resuspended in […] citrate buffer (0.1 M sodium citrate in 50% ethanol) to assess plating efficiency. Intensity of crystal violet staining, assessed at 570 nm and quantified using a Vmax Kinetic Microplate Reader and Softmax software (Molecular Devices Corp., Menlo Park, Calif.), were directly proportional to cell number. Data were normalized to vehicle-treated cells and were presented as the mean±SE from representative experiments. SMSMs that are effective were determined for various cells lines.
A-673 cell viability […], splicing (IC50) and brain AUC/Plasma AUC of SMSMs were determined. As shown in the tables below SMSMs had high CNS exposure.
In the case of `Oc1cc(-c2cn[nH]c2)ccc1-c1ccc(N2CCC23CCNCC3)nn1` [compound 132, 2-(6-(1,7-diazaspiro[3.5]nonan-1-yl)pyridazin-3-yl)-5-(1H-pyrazol-4-yl)phenol], the IC50 is above 1000 nM.

`CN(c1ccc(-c2ccc(-c3cn[nH]c3)cc2O)nn1)[C@@H]1C[C@]2(C)CC[C@](C)(C1)N2` [compound 150, 2-(6-(((1R,3r,5S)-1,5-dimethyl-8-azabicyclo[3.2.1]octan-3-yl)(methyl)amino)pyridazin-3-yl)-5-(1H-pyrazol-4-yl)phenol]: the IC50 is above 1000 nM.

For the compound `CN(c1ccc(-c2ccc(-c3cn[nH]c3)cc2O)nn1)[C@H]1C[C@]2(C)COC[C@](C)(C1)N2` [compound 156, 2-(6-(((1R,5S,7r)-1,5-dimethyl-3-oxa-9-azabicyclo[3.3.1]nonan-7-yl)(methyl)amino)pyridazin-3-yl)-5-(1H-pyrazol-4-yl)phenol], the IC50 fell in the range of 10 to 100 nM.

With `CN(c1ccc(-c2ccc(-c3cn[nH]c3)cc2O)nn1)[C@@H]1C[C@]2(C)COC[C@](C)(C1)N2` [compound 157, 2-(6-(((1R,5S,7s)-1,5-dimethyl-3-oxa-9-azabicyclo[3.3.1]nonan-7-yl)(methyl)amino)pyridazin-3-yl)-5-(1H-pyrazol-4-yl)phenol], the IC50 was above 1000 nM.

For `COc1ccc2cc(-c3ccc(N(C)[C@@H]4C[C@H]5CC[C@@H](C4)N5)nn3)c(O)cc2c1` [compound 163, 3-(6-(((1R,3s,5S)-8-azabicyclo[3.2.1]octan-3-yl)(methyl)amino)pyridazin-3-yl)-7-methoxynaphthalen-2-ol], the half-inhibitory concentration (IC50) was 101 to 250 nM.

As to `CN(c1ccc(-c2cc3ccc(OCF)cc3cc2O)nn1)[C@@H]1C[C@H]2CC[C@@H](C1)N2` [compound 165, 3-(6-(((1R,3s,5S)-8-azabicyclo[3.2.1]octan-3-yl)(methyl)amino)pyridazin-3-yl)-7-(fluoromethoxy)naphthalen-2-ol], the IC50 fell in the range of 10 to 100 nM.

In the case of `CN(c1ccc(-c2cc3ccc(OC(F)F)cc3cc2O)nn1)[C@@H]1C[C@H]2CC[C@@H](C1)N2` [compound 166, 3-(6-(((1R,3s,5S)-8-azabicyclo[3.2.1]octan-3-yl)(methyl)amino)pyridazin-3-yl)-7-(difluoromethoxy)naphthalen-2-ol], the IC50 was 501 to 1000 nM.

Regarding `[2H]C([2H])([2H])n1cc(-c2ccc(-c3ccc(N(C)[C@H]4C[C@]5(C)CC[C@](C)(C4)N5)nn3)c(O)c2)cn1` [compound 171, 2-(6-(((1R,3s,5S)-1,5-dimethyl-8-azabicyclo[3.2.1]octan-3-yl)(methyl)amino)pyridazin-3-yl)-5-(1-(methyl-d3)-1H-pyrazol-4-yl)phenol], the IC50 was in the range of 10 to 100 nM.

As to `[2H]C([2H])([2H])Oc1cc(-c2ccc(-c3ccc(N(C)[C@H]4C[C@]5(C)CC[C@](C)(C4)N5)nn3)c(O)c2)ccn1` [compound 172, 2-(6-(((1R,3s,5S)-1,5-dimethyl-8-azabicyclo[3.2.1]octan-3-yl)(methyl)amino)pyridazin-3-yl)-5-(2-(methoxy-d3)pyridin-4-yl)phenol], the IC50 is below 10 nM.

Take `COc1cc(-c2ccc(-c3ccc(N(C)[C@H]4C[C@]5(C)CC[C@](C)(C4)N5)nn3)c(O)c2)ccn1` [compound 173, 2-(6-(((1R,3s,5S)-1,5-dimethyl-8-azabicyclo[3.2.1]octan-3-yl)(methyl)amino)pyridazin-3-yl)-5-(2-methoxypyridin-4-yl)phenol]: the IC50 was below 10 nM.

With `CN(c1ccc(-c2ccc(-c3cnn(CF)c3)cc2O)nn1)[C@H]1C[C@]2(C)CC[C@](C)(C1)N2` [compound 174, 2-(6-(((1R,3s,5S)-1,5-dimethyl-8-azabicyclo[3.2.1]octan-3-yl)(methyl)amino)pyridazin-3-yl)-5-(1-(fluoromethyl)-1H-pyrazol-4-yl)phenol], the IC50 was below 10 nM.

`CN(c1ccc(-c2ccc(-n3cc(F)cn3)cc2O)nn1)[C@H]1C[C@]2(C)CC[C@](C)(C1)N2` [compound 175, 2-(6-(((1R,3s,5S)-1,5-dimethyl-8-azabicyclo[3.2.1]octan-3-yl)(methyl)amino)pyridazin-3-yl)-5-(4-fluoro-1H-pyrazol-1-yl)phenol]: the IC50 lay within 10 to 100 nM.

Consider `CN(c1ccc(-c2ccc(-n3cnc(F)c3)cc2O)nn1)[C@H]1C[C@]2(C)CC[C@](C)(C1)N2` [compound 176, 2-(6-(((1R,3s,5S)-1,5-dimethyl-8-azabicyclo[3.2.1]octan-3-yl)(methyl)amino)pyridazin-3-yl)-5-(4-fluoro-1H-imidazol-1-yl)phenol], for which the IC50 was in the range of 10 to 100 nM.

As to `Cc1cc(-c2ccc(N(C)[C@H]3C[C@]4(C)CC[C@](C)(C3)N4)nn2)c(O)cc1-c1ccn(C)c(=O)c1` [compound 178, 4-(4-(6-(((1R,3s,5S)-1,5-dimethyl-8-azabicyclo[3.2.1]octan-3-yl)(methyl)amino)pyridazin-3-yl)-5-hydroxy-2-methylphenyl)-1-methylpyridin-2(1H)-one], the IC50 was in the range of 251 to 500 nM.

As to `CN(c1ccc(-c2ccc(-c3cnn(C(F)F)c3)cc2O)nn1)[C@H]1C[C@]2(C)CC[C@](C)(C1)N2` [compound 179, 5-(1-(difluoromethyl)-1H-pyrazol-4-yl)-2-(6-(((1R,3s,5S)-1,5-dimethyl-8-azabicyclo[3.2.1]octan-3-yl)(methyl)amino)pyridazin-3-yl)phenol], the IC50 was 10 to 100 nM.

`CN(c1ccc(-c2ccc(-c3ncn(C)c(=O)n3)cc2O)nn1)[C@H]1C[C@]2(C)CC[C@](C)(C1)N2` [compound 181, 4-(4-(6-(((1R,3s,5S)-1,5-dimethyl-8-azabicyclo[3.2.1]octan-3-yl)(methyl)amino)pyridazin-3-yl)-3-hydroxyphenyl)-1-methyl-1,3,5-triazin-2(1H)-one]: the IC50 was 251 to 500 nM.

`CN(c1ccc(-c2ccc(-c3cc[nH]c(=O)c3)cc2O)nn1)[C@H]1C[C@]2(C)CC[C@](C)(C1)N2` [compound 183, 4-(4-(6-(((1R,3s,5S)-1,5-dimethyl-8-azabicyclo[3.2.1]octan-3-yl)(methyl)amino)pyridazin-3-yl)-3-hydroxyphenyl)pyridin-2(1H)-one]: the IC50 lay in the range of 10 to 100 nM.

`CN(c1ccc(-c2cc(F)c(-c3cc[nH]c(=O)c3)cc2O)nn1)[C@H]1C[C@]2(C)CC[C@](C)(C1)N2` [compound 184, 4-(4-(6-(((1R,3s,5S)-1,5-dimethyl-8-azabicyclo[3.2.1]octan-3-yl)(methyl)amino)pyridazin-3-yl)-2-fluoro-5-hydroxyphenyl)pyridin-2(1H)-one]: the IC50 fell in the range of 10 to 100 nM.

As usually defined, the EC50 is the concentration that produces a half-maximal response. A word on the IC50: it is the concentration at which inhibition is half-maximal.
